As a reminder, the mortality is the share of the test organisms that died. The melting point is the temperature of the solid-liquid transition.

From US8119568B2, “3-amino-1,2-benzisothiazole compounds for combating animal pest II” (BASF SE, priority 2007, dated 2012) come the findings set out here.

Data set [1] concerns Green Peach Aphid (Myzus persicae). The data set can be described thus: Green peach aphid (Myzus persicae) test, infested bell pepper leaves dipped in test solution. The data set is classed as in vivo. The settings on record: 120 h, determined after 5 days, read-out: mortality of green peach aphid in comparison with untreated controls. The protocol: (§1) If not otherwise described, the active compounds were formulated in a mixture of 50 vol.-% acetone:50 vol.-% water. A nonionic surfactant (Kinetic®) was included in the solution at a volume of 0.01% v/v.
(§2) In the following tests, the formulated solutions of the active compounds were diluted to an active ingredient concentration of 300 ppm and the diluted solutions were applied in the below mentioned tests.
Bell pepper plants at the first true-leaf stage were infested prior to treatment by placing heavily infested leaves from the main aphid colony on top of the treatment plants. The aphids were allowed to transfer overnight to accomplish an infestation of 30-40 aphids per plant and the host leaves were removed. The infested leaves of the test plants were then dipped and agitated in the test solution for 3 seconds and allowed to dry in a fume hood. Test plants were maintained under fluorescent lighting in a 24-hr photoperiod at 25° C. and 20-40% relative humidity. Mortality on the treated plants, relative to mortality on untreated check plants, was determined after 5 days.

In data set [2] the test system is Cowpea Aphid (aphis craccivora). The data set is described as follows: Cowpea aphid (aphis craccivora) test, colonized potted cowpea plants sprayed. The data set is classed as in vivo. As to conditions: assessed after 24, 72, and 120 hours, read-out: mortality in comparison with untreated controls (cowpea aphid). The protocol:
as §2
The active compound is dissolved at the desired concentration in a mixture of 1:1 (vol:vol) distilled water:acetone. The test solution is prepared at the day of use.
Potted cowpea plants colonized with approximately 100-150 aphids of various stages were sprayed after the pest population has been recorded. Population reduction was assessed after 24, 72, and 120 hours.

Data set [3] has as its system Cotton Aphid (Aphis gossypii). The data set can be described thus: Cotton aphid (Aphis gossypii) test, infested cotton cotyledons dipped in test solution. The data set is classed as in vivo. As to conditions: 120 h, determined after 5 days, read-out: mortality of cotton aphid (Aphis gossypii, mixed life stages) in comparison with untreated controls. The protocol: as §1, §2
Cotton plants at the cotyledon stage were infested prior to treatment by placing a heavily infested leaf from the main aphid colony on top of each cotyledon. The aphids were allowed to transfer overnight and the host leaf was removed. The infested cotyledons were then dipped and agitated in the test solution for 3 seconds and allowed to dry in a fume hood. Test plants were maintained under fluorescent lighting in a 24-hr photoperiod at 25° C. and 20-40% relative humidity. Aphid mortality on the treated plants, relative to mortality on untreated check plants, was determined after 5 days.

Data set [4] has as its system Diamond Back Moth (plutella xylostella). The data set can be described thus: Diamond back moth (plutella xylostella) test, Chinese cabbage leaves dipped. The settings on record: 3rd instar larvae on dipped cabbage leaves, recorded 24, 72, and 120 hours after treatment, read-out: mortality in comparison with untreated controls (diamond back moth). The data set is classed as in vivo. The method, then: as §2
The active compound is dissolved at the desired concentration in a mixture of 1:1 (vol:vol) distilled water:acteon. The test solution is prepared at the day of use.
Leaves of Chinese cabbage were dipped in test solution and air-dried. Treated cabbage leaves were placed in petri dished lined with moist filter paper and 3rd instar larvae were added. Mortality was recorded 24, 72, and 120 hours after treatment.

Data set [5] relates to Southern Armyworm (Spodoptera eridania), 2nd Instar Larvae. The data set can be described thus: Southern armyworm (Spodoptera eridania) test, Sieva lima bean leaves dipped. The data set is classed as in vivo. As to conditions: 96 h, 2nd instar larvae on dipped lima bean leaves, at 4 days, read-out: mortality in comparison with untreated controls (southern armyworm). The method, then: as §2
The active compounds were formulated in 50:50 acetone:water (vol) and 100 ppm Kinetica™ surfactant.
A pair of first true leaves of Sieva lima bean was dipped into the test solution and allowed to dry. The leaves were then placed in a plastic perforated zip enclosure bag and ten 2nd instar larvae were added. At 4 days, observations were made of mortality and reduced feeding.

Turning to `CCN(C(=O)COC)c1nsc2cccc(OC(F)F)c12` [compound 77], the mortality at 300 ppm in data set [1] was no less than 89%; in data set [2] it was greater than 89%.

As to `COCC(=O)N(C)c1nsc2cccc(OC(F)F)c12` [compound 76], the mortality at 300 ppm is no less than 89% in data set [1] and greater than 89% in data set [2].

For `CCN(C(=O)c1cc(C(F)(F)F)nn1-c1ncccc1Cl)c1nsc2cccc(OC)c12` [compound 86], the mortality at 300 ppm in data set [3] is no less than 89%.

Regarding `COc1cccc2snc(N(C)C(=O)c3cnccc3C(F)(F)F)c12` [compound 105], the results for the mortality at 300 ppm in data set [3], in data set [4] and in data set [2] were no less than 89%, greater than 89% and greater than 89%, respectively.

Consider `CCN(C(=O)c1ccc(Cl)nc1)c1nsc2cccc(OC(F)F)c12` [compound 83], for which, in data set [1], the mortality at 300 ppm is no less than 89%.

Turning to `CCN(C(=O)c1cc(C(F)(F)F)nn1-c1ncccc1Cl)c1nsc2cccc(OC(F)F)c12` [compound 81], in data set [2], the mortality at 300 ppm was greater than 89%.

Regarding `COCC(=O)N(C)c1nsc2cccc(Cl)c12` [compound 87], the mortality at 300 ppm in data set [3] is no less than 89%; in data set [1], no less than 89%; in data set [2], greater than 89%.

Turning to `CN(C(=O)c1cnccc1C(F)(F)F)c1nsc2cccc(OC(F)F)c12` [compound 91], the mortality at 300 ppm in data set [3] was no less than 89%.

As for `CN(C(=O)c1ccc(C(F)(F)F)nc1)c1nsc2cccc(Cl)c12` [compound 108], the mortality at 300 ppm in data set [3] was no less than 89%; in data set [2] it was greater than 89%.

As to `CN(C(=O)c1cc(Br)nn1-c1ncccc1Cl)c1nsc2cccc(OC(F)F)c12` [compound 92], the mortality at 300 ppm in data set [3] is no less than 89%.

Turning to `O=C(Nc1nsc2cccc(OC(F)F)c12)c1cc(Br)nn1-c1ncccc1Cl` [compound 89], the mortality at 300 ppm in data set [3] was no less than 89%.

Consider `O=C(Nc1nsc2cccc(Cl)c12)c1ccc(C(F)(F)F)nc1Cl` [compound 115], for which, in data set [3], the mortality at 300 ppm is no less than 89%.

As to `O=C(Nc1nsc2cccc(Cl)c12)c1cc(C(F)(F)F)nn1-c1ncccc1Cl` [compound 75], the mortality at 300 ppm in data set [5] is greater than 89%.

Turning to `COc1cccc2snc(N(C)C(=O)c3cc(Br)nn3-c3ncccc3Cl)c12` [compound 94], the values for the mortality at 300 ppm in data set [3] and in data set [2] were no less than 89% and greater than 89%, respectively.

In the case of `CC(=O)N(C)c1nsc2cccc(OC(F)F)c12` [compound 25], the mortality at 300 ppm in data set [1] was no less than 89%.

Consider `CN(C(=O)c1ccc(Cl)nc1)c1nsc2cccc(OC(F)F)c12` [compound 82], for which the mortality at 300 ppm in data set [1] was no less than 89%; in data set [2] it was greater than 89%.

For the molecule `CN(C(=O)c1cnccc1C(F)(F)F)c1nsc2cccc(Cl)c12` [compound 106], the values for the mortality at 300 ppm in data set [3] and in data set [2] were no less than 89% and greater than 89%, respectively.

As to `COc1cccc2snc(N=S(C)C)c12` [compound 125], the mortality at 300 ppm in data set [3] and in data set [1] was no less than 89% in each case.

For the molecule `O=C(Nc1nsc2cccc(Cl)c12)c1cc(Br)nn1-c1ncccc1Cl` [compound 74], in data set [5], the mortality at 300 ppm is greater than 89%.

For `CCCC(=O)N(CC)c1nsc2cccc(OC(F)F)c12` [compound 118], the mortality at 300 ppm in data set [3] was no less than 89%; in data set [1], no less than 89%; in data set [2] it was greater than 89%.

For the molecule `CCN(C(=O)C(F)(F)F)c1nsc2cccc(OC(F)F)c12` [Compound example 26, N-(4-Difluoromethoxy-benzo[d]isothiazol-3-yl)-N-ethyl-2,2,2-trifluoro-acetamide], the melting point is 176 to 177 °C.

Regarding `Cc1cccc2snc(NC(=O)c3cc(C(F)(F)F)nn3-c3ncccc3Cl)c12` [compound 113], the mortality at 300 ppm in data set [4] and in data set [5] was greater than 89% in each case.
